{"source": "patent US20190247343A1", "about": "“USE OF FENOFIBRIC ACID IN THE TREATMENT OF HEPATIC DISEASES” (GENCOD, priority 2016, published 2019)", "key": {"[1]": {"experiment": "Solubility at saturation of salts and crystalline forms, buffered solution pH 6.0", "assay_type": "physicochemical", "details": "aqueous buffer pH 6.0, after 24 hours of stirring, European Pharmacopoeia criteria", "procedure": "The purpose of this example is to determine the solubility characteristics of different crystalline forms and salts of fenofibric acid, with a view to administration by the oral mucosal route, in order to treat or forestall patients of liver diseases, such as fatty liver disease.\nThe solubilisation kinetics are determined by placing fenofibric acid samples at an excess in an aqueous buffered solution at pH 6.0, equivalent to salivary pH. Samples are taken after 0.5, 1, 2, 4, 6, 12 and 24 hours. They are analysed by HPLC after centrifugation and filtration of the samples on a 0.45 μm PTFE filter.\nThe samples are received from several Indian and Chinese suppliers. Fenofibric acid form II is obtained from a suspension of fenofibrate (ester) in isopropanol.\nThe results in terms of solubility at saturation (after 24 hours of stirring) are given in the table below and are expressed as per the criteria of the European Pharmacopoeia in force at the time of the tests. The melting points are obtained by DSC (endothermic peak, onset measurement)."}, "[2]": {"experiment": "Aqueous phase solubility as a function of pH / medium", "assay_type": "physicochemical"}, "mouse model of NASH": {"tested_on": "mouse model of NASH", "experiment": "In vivo mouse model of non-alcoholic steatohepatitis", "details": "mice on high-fat feed and fructose water, per os once daily", "procedure": "Fenofibric acid is studied at 2 doses and administered per os once daily. […] The number of male mice is 60 for the curative part of the study. They follow the normal light cycle, and are divided into enriched ventilated cages, after a one-week acclimatisation period. The mice are fed with high-fat content feed and fructose-enriched tap water. The mice are treated with the references or with the test formulation according to 2 doses, with daily administration per os for about 2 months. […] At different weeks of treatment, blood is collected to measure the blood glucose level, insulin, total cholesterol and triglyceride level, as well as the ALT and AST levels. After the final collection, the mice are sacrificed to measure the total hepatic cholesterol, triglycerides and fatty acid levels. Liver samples are also collected for histological analysis and the NAS score/index."}, "[3]": {"experiment": "In vitro oral penetration study, Franz type diffusion cells", "assay_type": "in vitro ADME, pig", "details": "37° C., different concentrations and pH 4.5-7.4", "procedure": "One of the preferred modes of administration is the oral mucous membrane route. In order to achieve this, the applicant prepared fenofibric acid solutions from samples provided by the supplier Harman Finochem (India). The in vitro penetration of the fenofibric acid formulation is evaluated using Franz type diffusion cells at 37° C., a system routinely used to evaluate the in vitro penetration of compounds through the skin, but with the oral mucous membrane as the membrane in this instance.\nThe applicant chose pig oral tissue because it has a non-keratinised morphology, relatively similar to the human oral epithelium (Gandhi, R. B. and Robinson. Adv Drug Deli Rev, 13:43-74, 1994). […]\nThe receptor compartment is filled with pH 7.4 buffer at 37° C. and the donor compartment with micronised fenofibric acid solution at 37° C. of different concentrations (from 0.2 mg/ml) with a pH also adjusted to pH 7.4 or a solution of fenofibric acid (0.5 mg/ml) in buffer solutions of different pH (4.5, 6.0, 6.8 and 7.4). Samples are taken from the receptor compartment at a predetermined time interval (2, 5, 10, 15, 30, 60, 90, 120, 150 and 180 minutes), replaced by the same volume of buffer and subsequently analysed using the HPLC method.\nThe quantity of fenofibric acid presented in the […] compartment is determined as a function of time. […]"}, "[4]": {"experiment": "Dissolution kinetics, USP type II paddle", "assay_type": "physicochemical", "details": "for fenofibric acid dissolved: FaSSIF and FeSSIF media", "procedure": "The applicant studied the dissolution profile of several batches of fenofibric acid received from several suppliers. The starting material batches include different granulometric characteristics including one standard grade (non-micronised) and several micronised batches.\nThe batches of fenofibric acid were prepared in various pharmaceutical forms including the following excipients: hypromellose, milk protein concentrate, corn starch, Lactose monohydrate (0.4 mg/50 mg of active ingredient), sodium lauryl sulphate as surfactant, magnesium stearate, and talc as a flow agent required during production.\nDissolution tests were carried out on most of the formulation in media such as acetate buffer at […] and purified water. Similarly, the rings were tested in […] media simulating fed and fasting conditions, with addition of enzymes (media referred respectively as FeSSIF and FaSSIF) were also tested after the 50 and 100 mg doses. The USP type II paddle system was retained for the tests with 1000 ml of volume, 37° C. and the samples, taken at 0, 2, 5, 10, 15, 20, 30, 45 and 60 minutes, were analysed by HPLC without replenishing the media."}, "immortalised human cells": {"tested_on": "immortalised human cells", "experiment": "In vitro cellular model in NASH/NAFLD: intracellular lipid droplet content", "assay_type": "cell-based", "details": "enriched medium, increasing concentrations, 24 hours", "text": "The applicant decided to explore in vitro approaches to test fenofibric acid as a medicinal product inhibiting progression of non-alcoholic fatty liver disease/steatohepatitis. In this field, only a few data obtained in NASH/NAFLD using cellular models have been published, whereas for other liver diseases, the research models and means are more numerous and more studied. In general, immortalised cell lines and primary cell cultures are widely used to develop in vitro models for research. The immortalised primary cells are candidate cells selected for the in vitro study due to the stable phenotype thereof, but also due to a culture method that is simple and standardised to carry out. The immortalised human cells were cultured in an enriched medium containing increasing fenofibric acid concentrations. The purpose of the study consisted of measuring the intracellular lipid droplet content. The entire staining procedure is conducted at ambient temperature while protecting the samples from direct light. The images were acquired with a fluorescence microscope. The intracellular lipid droplet content was determined by labelling. […] This trend is all the more noteworthy at the highest fenofibric acid concentration wherein the quantity and size of the droplets decreased in relation to that observed with the lowest dose."}, "[5]": {"experiment": "Solubility in 50:50 binary mixture with a surfactant", "assay_type": "physicochemical"}}, "note": "“Also recorded” adds a separate entry of the source."}
{"smiles": "CC(C)(Oc1ccc(C(=O)c2ccc(Cl)cc2)cc1)C(=O)O", "note": "[Fenofibric acid form II]", "values": [{"measurement": "Solubility at saturation", "setting": "[1]", "result": "Slightly soluble"}]}
{"smiles": "CC(C)(Oc1ccc(C(=O)c2ccc(Cl)cc2)cc1)C(=O)O", "note": "[fenofibric acid, 2-(4-(4-chlorobenzoyl)phenoxy)-2-methylpropanoic]", "values": [{"measurement": "solubility", "setting": "[2]; 0.01M sodium lauryl sulphate, aqueous with cosolvent or surfactant or cyclodextrin", "result": 90, "unit": "µg/mL"}, {"measurement": "solubility", "setting": "[2]; 0.1M sodium lauryl sulphate, aqueous with cosolvent or surfactant or cyclodextrin", "result": 810, "unit": "µg/mL"}, {"measurement": "solubility", "setting": "[2]; 0.1N HCl, simulated gastric fluid", "result": 2, "unit": "µg/mL"}, {"measurement": "solubility", "setting": "[2]; aqueous buffer, Phosphate buffer pH = 4.5", "result": 40, "unit": "µg/mL"}, {"measurement": "solubility", "setting": "[2]; aqueous buffer, Phosphate buffer pH = 5.5", "result": 330, "unit": "µg/mL"}, {"measurement": "solubility", "setting": "[2]; aqueous buffer, Phosphate buffer pH = 6.5", "result": 1060, "unit": "µg/mL"}, {"measurement": "solubility as a function of pH", "setting": "[2]; greatest at pH values closest to neutrality", "result": "increases as a function of pH"}, {"measurement": "solubility", "setting": "[2]; purified water, water", "result": 20, "unit": "µg/mL"}, {"measurement": "increase in the triglyceride level", "setting": "mouse model of NASH", "result": "significantly inhibit the increase"}, {"measurement": "increase in the weight of the liver", "setting": "mouse model of NASH", "result": "significantly inhibit the increase"}, {"measurement": "plasma ALT concentration", "setting": "mouse model of NASH", "result": "decreased substantially"}, {"measurement": "development of fatty liver disease (macroscopic and microscopic examination of the liver)", "setting": "mouse model of NASH; about 2 months", "result": "prevented the development of fatty liver disease"}, {"measurement": "plasma ALT concentration", "setting": "mouse model of NASH; listed as Fenofibric acid", "result": "notably reduced"}, {"measurement": "increase in the fatty liver disease activity score", "setting": "mouse model of NASH; liver histology", "result": "significantly inhibit the increase"}, {"measurement": "increase in the fibrotic zones", "setting": "mouse model of NASH; liver histology", "result": "significantly inhibit the increase"}, {"measurement": "penetration through the porcine oral mucous membrane", "setting": "[3]", "result": "noteworthy penetration; also recorded: rapidly absorbed"}, {"measurement": "fenofibric acid dissolved", "setting": "[4]; after 10 minutes", "result": "over 80%"}, {"measurement": "fenofibric acid dissolved", "setting": "[4]; after 30 minutes", "result": "entirety"}, {"measurement": "dissolution of the active ingredient alone", "setting": "[4]; after 60 minutes, paddle, 1000 ml, 37° C.", "result": "totally dissolved"}, {"measurement": "intracellular lipid droplet content", "setting": "immortalised human cells", "result": "dose-dependent fat reduction"}, {"measurement": "Solubility in water", "setting": "[5]; surfactant Cremophor EL, 50:50 binary mixture", "result": 56, "unit": "mg/g"}, {"measurement": "Solubility in water", "setting": "[5]; surfactant Cremophor RH40, 50:50 binary mixture", "result": 59, "unit": "mg/g"}, {"measurement": "Solubility in water", "setting": "[5]; surfactant Labrasol, 50:50 binary mixture", "result": 55, "unit": "mg/g"}, {"measurement": "Solubility in water", "setting": "[5]; surfactant Solutol HS15, 50:50 binary mixture", "result": 60, "unit": "mg/g"}, {"measurement": "Solubility in water", "setting": "[5]; surfactant Tween 80, 50:50 binary mixture", "result": 61, "unit": "mg/g"}]}
